Source: patent publication US20030158254A1, “Engineering absorption of therapeutic compounds via colonic transporters” (XenoPort, Inc., priority 2002, published 2003)

Target: T1, rat PEPT1 (Rattus norvegicus, UniProt P51574)
T1 construct: Rat and human PEPT1 and PEPT2 transporter cDNAs were subcloned into a modified pGEM plasmid; expressed in transfected cells; host or cells: Xenopus laevis oocytes injected with in vitro transcribed RNA
T1 sequence (P51574 1-710): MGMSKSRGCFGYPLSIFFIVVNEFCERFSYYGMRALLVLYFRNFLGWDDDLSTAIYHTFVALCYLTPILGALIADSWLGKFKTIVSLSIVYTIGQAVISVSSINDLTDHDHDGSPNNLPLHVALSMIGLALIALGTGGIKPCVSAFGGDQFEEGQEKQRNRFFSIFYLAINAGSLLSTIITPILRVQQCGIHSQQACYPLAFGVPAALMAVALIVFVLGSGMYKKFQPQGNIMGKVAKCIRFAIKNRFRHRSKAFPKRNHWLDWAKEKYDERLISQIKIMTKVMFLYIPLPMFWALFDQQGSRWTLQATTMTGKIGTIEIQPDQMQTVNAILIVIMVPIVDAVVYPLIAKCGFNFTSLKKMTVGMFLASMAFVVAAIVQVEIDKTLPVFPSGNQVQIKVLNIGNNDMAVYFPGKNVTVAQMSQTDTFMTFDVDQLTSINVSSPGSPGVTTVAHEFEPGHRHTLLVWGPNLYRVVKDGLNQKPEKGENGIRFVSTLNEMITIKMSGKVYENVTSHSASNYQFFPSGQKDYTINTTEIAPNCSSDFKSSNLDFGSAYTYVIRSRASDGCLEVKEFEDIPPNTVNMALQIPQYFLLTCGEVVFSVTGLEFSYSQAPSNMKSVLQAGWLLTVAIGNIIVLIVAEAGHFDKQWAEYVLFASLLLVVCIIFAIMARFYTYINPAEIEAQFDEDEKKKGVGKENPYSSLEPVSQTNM
Assay: Electrogenic transport (induced current) in Xenopus oocytes transfected with rat PEPT1
Type: cell-based
Protocol: Rat and human PEPT1 and PEPT2 expressing CHO cell lines were prepared as described in PCT Application WO01/20331. Gabapentin-containing dipeptides were evaluated for interaction with the peptide transporters using a radiolabeled substrate uptake assay in a competitive inhibition format, as described in PCT Application WO01/20331. Transport-induced currents were also measured in Xenopus oocytes transfected with rat and human PEPT1 and PEPT2.
RNA preparation: Rat and human PEPT1 and PEPT2 transporter cDNAs were subcloned into a modified pGEM plasmid that contains 5′ and 3′ untranslated sequences from the Xenopus β-actin gene. These sequences increase RNA stability and protein expression. Plasmid cDNA was linearized and used as template for in vitro transcription (Epicentre Technologies transcription kit, 4:1 methylated:non-methylated guanosine triphosphate(GTP)).
Xenopus oocyte isolation. Xenopus laevis frogs were anesthetized by immersion in Tricaine ([…] in deionized water) for 15 min. […]
Electrophysiology measurements. Transport currents were measured 2-14 days after injection, using a standard two-electrode electrophysiology set-up (Geneclamp 500 amplifier, Digidata 1320/PCLAMP software and ADInstruments hardware and software were used for signal acquisition). […]

Q: With `CC(C)(N)C(=O)NCC1(CC(=O)O)CCCCC1` [Compound V, a-aminoisobutyryl gabapentin] as the molecule, how does the “Vmax relative to reference substrate Gly-Sar” value (1 mM, oocytes transfected with rat PEPT1) read?
A: Its value is 50%.

Q: And the “Vmax relative to Gly-Sar in the presence of PEPT inhibitor Lys(ε-Dansyl)-Leu” value (rat PEPT transfected oocytes, with Lys(ε-Dansyl)-Leu)?
A: The value was less than 5%.
